Results published in the supplement of paper PMC4862054.

Key:
Conditions in all cases: incubation time: 72 h
HCC1937 [1] = assay: drug sensitivity score (DSS), CellTiter-Glo (DSS (AUC-based score)); higher = stronger drug effect (viability inhibition or cytotoxicity); extreme values may be limits of the assay
Outline: (§1)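 Using 20 µl of cell suspension per well, breast cancer cell lines were seeded into 384-well plates pre-loaded with compound at 5 concentrations in 10-fold steps across a compound-specific 10,000-fold range. Incubation lasted 72 h, after which CellTox Green fluorescence at 485/520 nm and then CellTiter-Glo luminescence, following 10 min at room temperature, were recorded. Each plate was normalised to 0.1 % DMSO and a positive kill control before the drug sensitivity score was derived from the area under the fitted dose-response curve.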

CAL-120 = assay: as above
Outline: as §1

CAL-85-1 = assay: normalised response (% of control), CellTox Green; higher = less cell death (100 = DMSO, 0 = benzethonium chloride kill control)
Outline: (§2)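 Breast cancer cell lines in 20 µl suspension were added to 384-well plates containing compound at 5 concentrations, spaced in 10-fold steps across a 10,000-fold range chosen for each compound, and incubated for 72 h. CellTox Green fluorescence was read at 485/520 nm, followed by CellTiter-Glo luminescence after 10 min at room temperature. Signals on each plate were normalised so that 0.1 % DMSO equals 100 and a positive kill control equals 0. Every value in the table is the normalised signal at one concentration of the series.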

MDA-MB-231 = assay: as above
Outline: as §2

MDA-MB-453 = assay: as above
Outline: as §2

HCC1937 [2] = assay: as above
Outline: as §2

HCC1143 = assay: as above
Outline: as §2

Row | SMILES | drug sensitivity score (HCC1937 [1]) | drug sensitivity score (CAL-120) | normalised response (CAL-85-1) [%] | normalised response (MDA-MB-231) [%] | normalised response (MDA-MB-453) [%] | normalised response (HCC1937 [2]) [%] | normalised response (HCC1143) [%]
1 | Cc1c(Cn2c(C)nc3c(C(=O)O)cc(N4CCOCC4)cc32)cccc1C(F)(F)F | 0 | 0 | – | – | – | – | –
2 | COc1ccc(-c2cc3c(C)nc(N)nc3n([C@H]3CC[C@H](OCCO)CC3)c2=O)cn1 (1000 nM) | – | – | 79.9 | 76.8 | 84.2 | -51.2 | 79.8
3 | COc1ccc(-c2cc3c(C)nc(N)nc3n([C@H]3CC[C@H](OCCO)CC3)c2=O)cn1 (10000 nM) | – | – | 52.1 | 4.33 | 61.1 | 41.4 | 91.1
4 | CC/C(=C(\c1ccc(O)cc1)c1ccc(OCCN(C)C)cc1)c1ccccc1 [4-hydroxytamoxifen] | 3.45 | 1.84 | – | – | – | – | –
5 | CCCCC/C=C/C=C1/C(=O)C=C[C@@H]1C/C=C\CCCC(=O)O [15D-PGJ2] | 0 | 0 | – | – | – | – | –
6 | O=C(Nc1c[nH]nc1-c1nc2ccc(CN3CCOCC3)cc2[nH]1)NC1CC1 [AT9283] (1000 nM) | – | – | 37.8 | 40.6 | 101 | 116 | 119
7 | COc1cc(CCc2cc(NC(=O)c3ccc(N4CC(C)NC(C)C4)cc3)n[nH]2)cc(OC)c1 (stereo not given) [AZD4547] (100 nM) | – | – | 108 | 90.1 | 100 | 113 | 82
8 | COc1cc(CCc2cc(NC(=O)c3ccc(N4CC(C)NC(C)C4)cc3)n[nH]2)cc(OC)c1 (stereo not given) [AZD4547] (1000 nM) | – | – | 126 | 110 | 103 | 88.6 | 59.4
9 | CC(=O)OC[C@H]1O[C@@H]([S-])[C@H](OC(C)=O)[C@@H](OC(C)=O)[C@@H]1OC(C)=O.CCP(CC)CC.[Au+] [Auranofin] | 7.45 | 0.998 | – | – | – | – | –
10 | CCC/C=C/C=C/C(=O)O[C@H]1/C(=C/C(=O)OC)C[C@H]2C[C@H]([C@@H](C)O)OC(=O)C[C@H](O)C[C@@H]3C[C@H](OC(C)=O)C(C)(C)[C@](O)(C[C@@H]4C/C(=C/C(=O)OC)C[C@H](/C=C/C(C)(C)[C@]1(O)O2)O4)O3 [Bryostatin 1] (10 nM) | – | – | 91.3 | 117 | 99.9 | 83.2 | 116
11 | CCC/C=C/C=C/C(=O)O[C@H]1/C(=C/C(=O)OC)C[C@H]2C[C@H]([C@@H](C)O)OC(=O)C[C@H](O)C[C@@H]3C[C@H](OC(C)=O)C(C)(C)[C@](O)(C[C@@H]4C/C(=C/C(=O)OC)C[C@H](/C=C/C(C)(C)[C@]1(O)O2)O4)O3 [Bryostatin 1] (100 nM) | – | – | 64.6 | 120 | 104 | – | 53.9
12 | CO[C@@H](C(=O)N1Cc2[nH]nc(NC(=O)c3ccc(N4CCN(C)CC4)cc3)c2C1)c1ccccc1 [Danusertib] (1000 nM) | – | – | 97.5 | 101 | 84.9 | 129 | 66.9
13 | CO[C@@H](C(=O)N1Cc2[nH]nc(NC(=O)c3ccc(N4CCN(C)CC4)cc3)c2C1)c1ccccc1 [Danusertib] (10000 nM) | – | – | 67.3 | 93.2 | 112 | – | 127
14 | Cc1nc(Nc2ncc(C(=O)Nc3c(C)cccc3Cl)s2)cc(N2CCN(CCO)CC2)n1 [Dasatinib] (100 nM) | – | – | 74 | 84.3 | 97.2 | 5.95 | 70.1
15 | Cc1nc(Nc2ncc(C(=O)Nc3c(C)cccc3Cl)s2)cc(N2CCN(CCO)CC2)n1 [Dasatinib] (1000 nM) | – | – | 43.1 | 35 | 92.5 | 91.4 | 107
16 | Cc1c(CN2CCN(C(=O)[C@H](C)O)CC2)sc2c(N3CCOCC3)nc(-c3cnc(N)nc3)nc12 [GDC-0980] (1000 nM) | – | – | 97.7 | 98.8 | 104 | 107 | 85
17 | Cc1c(CN2CCN(C(=O)[C@H](C)O)CC2)sc2c(N3CCOCC3)nc(-c3cnc(N)nc3)nc12 [GDC-0980] (10000 nM) | – | – | 58 | 98.1 | 86.7 | 101 | 47
18 | Cc1cccc(-c2nn3c(c2-c2ccnc4ccc(C(N)=O)cc24)CCC3)n1 [Galunisertib] | 0 | 0 | – | – | – | – | –
19 | Nc1cccc2c1CN(C1CCC(=O)NC1=O)C2=O (stereo not given) [Lenalidomide] (1000 nM) | – | – | 92.2 | 109 | 103 | 113 | 111
20 | Nc1cccc2c1CN(C1CCC(=O)NC1=O)C2=O (stereo not given) [Lenalidomide] (10000 nM) | – | – | 90.7 | 108 | 99.8 | 97.7 | 119
21 | C[C@]12O[C@H](C[C@]1(O)CO)n1c3ccccc3c3c4c(c5c6ccccc6n2c5c31)CNC4=O [Lestaurtinib] (100 nM) | – | – | 83.4 | – | 102 | 81.8 | 116
22 | C[C@]12O[C@H](C[C@]1(O)CO)n1c3ccccc3c3c4c(c5c6ccccc6n2c5c31)CNC4=O [Lestaurtinib] (1000 nM) | – | – | 21.5 | 89.2 | 104 | 89.6 | 73.5

Row | SMILES | drug sensitivity score (HCC1937 [1]) | drug sensitivity score (CAL-120) | normalised response (CAL-85-1) [%] | normalised response (MDA-MB-231) [%] | normalised response (MDA-MB-453) [%] | normalised response (HCC1937 [2]) [%] | normalised response (HCC1143) [%]
23 | O=C1c2c(O)ccc(O)c2C(=O)c2c(NCCNCCO)ccc(NCCNCCO)c21 [Mitoxantrone] (100 nM) | – | – | 101 | 94.8 | 104 | 117 | 109
24 | O=C1c2c(O)ccc(O)c2C(=O)c2c(NCCNCCO)ccc(NCCNCCO)c21 [Mitoxantrone] (1000 nM) | – | – | 104 | 119 | 112 | 117 | 119
25 | Nc1ccccc1NC(=O)c1ccc(CNc2nccc(-c3cccnc3)n2)cc1 [Mocetinostat] (1000 nM) | – | – | 101 | 81.3 | 99.2 | 105 | 98.2
26 | Nc1ccccc1NC(=O)c1ccc(CNc2nccc(-c3cccnc3)n2)cc1 [Mocetinostat] (10000 nM) | – | – | -38.3 | -24.5 | 92.3 | 69.9 | 63.6
27 | COc1nc(N)nc2c1ncn2[C@@H]1O[C@H](CO)[C@@H](O)[C@@H]1O [Nelarabine] (1000 nM) | – | – | 108 | 106 | 104 | 100 | –
28 | COc1nc(N)nc2c1ncn2[C@@H]1O[C@H](CO)[C@@H](O)[C@@H]1O [Nelarabine] (10000 nM) | – | – | 138 | 97.9 | 87 | 94.5 | 99.1
29 | Cc1ccc(Nc2nccc(N(C)c3ccc4c(C)n(C)nc4c3)n2)cc1S(N)(=O)=O [Pazopanib] (1000 nM) | – | – | 101 | 99.5 | 95.2 | 101 | 99.3
30 | Cc1ccc(Nc2nccc(N(C)c3ccc4c(C)n(C)nc4c3)n2)cc1S(N)(=O)=O [Pazopanib] (10000 nM) | – | – | 78.9 | 99.7 | 102 | 85.7 | 55.8
31 | CS(=O)(=O)N1CCN(Cc2cc3nc(-c4cccc5[nH]ncc45)nc(N4CCOCC4)c3s2)CC1 [Pictilisib] | 5.69 | 7.47 | – | – | – | – | –
32 | O=C(NC[C@H](O)CO)c1ccncc1Nc1ccc(I)cc1F [Pimasertib] | 2.69 | 5.16 | – | – | – | – | –
33 | O=C(CCBr)N1CCN(C(=O)CCBr)CC1 [Pipobroman] (1000 nM) | – | – | 106 | 96.7 | 90.5 | 93.2 | –
34 | O=C(CCBr)N1CCN(C(=O)CCBr)CC1 [Pipobroman] (10000 nM) | – | – | 77.6 | 83.1 | 96.5 | 105 | –
35 | C[C@]12C=CC(=O)C=C1CC[C@@H]1[C@@H]2[C@@H](O)C[C@@]2(C)[C@H]1CC[C@]2(O)C(=O)CO [Prednisolone] (1000 nM) | – | – | 98.9 | 142 | – | 122 | 112
36 | C[C@]12C=CC(=O)C=C1CC[C@@H]1[C@@H]2[C@@H](O)C[C@@]2(C)[C@H]1CC[C@]2(O)C(=O)CO [Prednisolone] (10000 nM) | – | – | 84.1 | 150 | 94.6 | 56.3 | 51
37 | Cn1cc(CNCC2CCN(c3ncc(C(=O)NO)cn3)CC2)c2ccccc21 [Quisinostat] | 8.41 | 12.3 | – | – | – | – | –
38 | CC(C)N(CCCNC(=O)Nc1ccc(C(C)(C)C)cc1)C[C@H]1O[C@@H](n2cc(Br)c3c(N)ncnc32)[C@H](O)[C@@H]1O [SGC0946] | 0 | 0 | – | – | – | – | –
39 | CNC(=O)c1cc(Oc2ccc(NC(=O)Nc3ccc(Cl)c(C(F)(F)F)c3)cc2)ccn1 [Sorafenib] (100 nM) | – | – | 107 | 101 | 95.1 | 92 | 83.6
40 | CNC(=O)c1cc(Oc2ccc(NC(=O)Nc3ccc(Cl)c(C(F)(F)F)c3)cc2)ccn1 [Sorafenib] (1000 nM) | – | – | 89.9 | 100 | 102 | 99.2 | 101
41 | CCN(CC)CCNC(=O)c1c(C)[nH]c(/C=C2\C(=O)Nc3ccc(F)cc32)c1C [Sunitinib] (100 nM) | – | – | 99.8 | 123 | 102 | 114 | 107
42 | CCN(CC)CCNC(=O)c1c(C)[nH]c(/C=C2\C(=O)Nc3ccc(F)cc32)c1C [Sunitinib] (1000 nM) | – | – | 66.5 | 124 | 104 | 93.9 | 82.8
43 | CC[C@@]1(O)C(=O)OCc2c1cc1n(c2=O)Cc2cc3c(CN(C)C)c(O)ccc3nc2-1 [Topotecan] (100 nM) | – | – | 100 | 108 | 108 | 52.5 | 74.7
44 | CC[C@@]1(O)C(=O)OCc2c1cc1n(c2=O)Cc2cc3c(CN(C)C)c(O)ccc3nc2-1 [Topotecan] (1000 nM) | – | – | 67.8 | – | 108 | 95.1 | 76.7
